Data taken from ChEMBL document CHEMBL5316366, “Immunomodulatory Effects of New Phenanthrene Derivatives from Dendrobium crumenatum” (J Nat Prod, 2023).
Activity calls are given as the source filed them. No cut-off for these calls is given here.

Assays:
PBMC [1] = experiment: Immunomodulatory activity in PMA/ionomycin-induced human PBMC assessed as reduction in frequency of IL-2 expressing CD3+ T cells at 1 to 20 uM incubated for 4 hrs by flow cytometry; type: functional, cell-based; details: dose 1-20 µM
PBMC [2] = experiment: Cytotoxicity against human PBMC assessed as early apoptotic cells at 1 to 20 uM incubated for 4 hrs by Annexin V-FITC/7-AAD staining based flow cytometric analysis; type: toxicity, cell-based; details: dose 1-20 µM
PBMC [3] = experiment: Cytotoxicity against human PBMC assessed as late apoptotic cells at 1 to 20 uM incubated for 4 hrs by Annexin V-FITC/7-AAD staining based flow cytometric analysis; type: toxicity, cell-based; details: dose 1-20 µM
PBMC [4] = experiment: Immunomodulatory activity in human PBMC derived from multiple sclerosis patient assessed as reduction in IL-2 expressing CD3+ T cells at 10 uM incubated for 4 hrs by flow cytometry; type: functional, cell-based
PBMC [5] = experiment: Immunomodulatory activity in human PBMC derived from multiple sclerosis patient assessed as reduction in IFN-gamma expressing CD3+ T cells at 10 uM incubated for 4 hrs by flow cytometry; type: functional, cell-based
PBMC [6] = experiment: Immunomodulatory activity in human PBMC derived from multiple sclerosis patient assessed as reduction in TNF-alpha expressing CD3+ T cells at 10 uM incubated for 4 hrs by flow cytometry; type: functional, cell-based
PBMC [7] = experiment: Inhibition of Ca2+ influx in human PBMC derived from multiple sclerosis patient assessed as reduction in Ca2+ influx rate in CD4+ T cells at 10 uM incubated for 4 hrs by Fluo-4 AM staining based flow cytometry method; type: functional, cell-based
PBMC [8] = experiment: Inhibition of Ca2+ influx in human PBMC derived from multiple sclerosis patient assessed as reduction in Ca2+ influx rate in CD8+ T cells at 10 uM incubated for 4 hrs by Fluo-4 AM staining based flow cytometry method; type: functional, cell-based
PBMC [9] = experiment: Immunomodulatory activity in PMA/ionomycin-induced human PBMC assessed as reduction in frequency of IFN-gamma expressing CD3+ activated T cells at 1 to 20 uM incubated for 4 hrs by flow cytometry; type: functional, cell-based; details: dose 1-20 µM
PBMC [10] = experiment: Immunomodulatory activity in PMA/ionomycin-induced human PBMC assessed as reduction in frequency of TNF-alpha expressing CD14+ inflammatory monocytes at 1 to 20 uM incubated for 4 hrs by flow cytomtery; type: functional, cell-based; details: dose 1-20 µM
PBMC [11] = experiment: Immunomodulatory activity in PMA/ionomycin-induced human PBMC derived from multiple sclerosis patient assessed as decrease in frequency of CD161+ CD3+T-bet+CD4-CD8-CD14- double negative T cells by CyTOF assay; type: functional, cell-based
PBMC [12] = experiment: Immunomodulatory activity in PMA/ionomycin-induced human PBMC derived from multiple sclerosis patient assessed as increase in frequency of CTLA4+CRTH2+ CD8+ T cells by CyTOF assay; type: functional, cell-based
PBMC [13] = experiment: Immunomodulatory activity in multiple sclerosis patient derived PBMC derived from multiple sclerosis patient assessed as increase in frequency of CTLA4+CRTH2+ CD8+ T cells by CyTOF assay; type: functional, cell-based; details: Homo sapiens
PBMC [14] = experiment: Immunomodulatory activity in PMA/ionomycin-induced human PBMC derived from multiple sclerosis patient assessed as reduction in frequency of reactive ICOS+ CD4+ T cells by CyTOF assay; type: functional, cell-based
PBMC [15] = experiment: Immunomodulatory activity in multiple sclerosis patient derived PBMC derived from multiple sclerosis patient assessed as reduction in frequency of reactive ICOS+ CD4+ T cells by CyTOF assay; type: functional, cell-based; details: Homo sapiens
PBMC [16] = experiment: Inhibition of Ca2+ influx in human PBMC derived from multiple sclerosis patient assessed as decrease in Ca2+ influx rate in CD4+ T cells at 1 uM incubated for 4 hrs by Fluo-4 AM staining based flow cytometry method; type: functional, cell-based
PBMC [17] = experiment: Inhibition of Ca2+ influx in human PBMC derived from multiple sclerosis patient assessed as decrease in Ca2+ influx rate in CD8+ T cells at 1 uM incubated for 4 hrs by Fluo-4 AM staining based flow cytometry method; type: functional, cell-based

SMILES: COC1=CC(=O)c2c(ccc3c(OC)c(O)ccc23)C1=O
- Activity (PBMC [1]): Active

SMILES: COc1cc2c(c(OC)c1O)-c1ccc(O)c(O)c1CC2
- Activity (PBMC [1]): Active
- Activity (PBMC [2]): Non-Toxic
- Activity (PBMC [3]): Non-Toxic
- Activity (PBMC [4]): Active
- Activity (PBMC [5]): Active
- Activity (PBMC [6]): Active
- inhibition (PBMC [7]): inactive
- inhibition (PBMC [8]): inactive

SMILES: COc1cc2ccc3c(OC)c(O)ccc3c2c(OC)c1O
- Activity (PBMC [1]): Active

SMILES: COC1=CC(=O)c2c(ccc3c(OC)c(O)ccc23)[C@@]12Oc1cc(OC)cc3ccc4c(c13)C2=CC(=O)C4=O
- Activity (PBMC [9]): Active
- Activity (PBMC [1]): Active
- Activity (PBMC [10]): Active
- Activity (PBMC [2]): Non-Toxic
- Activity (PBMC [3]): Non-Toxic
- Activity (PBMC [4]): Active
- Activity (PBMC [5]): Active
- Activity (PBMC [6]): Active
- inhibition (PBMC [7]): inactive
- inhibition (PBMC [8]): inactive
- Activity (PBMC [11]): Active
- Activity (PBMC [12]): Active
- Activity (PBMC [13]): Active
- Activity (PBMC [14]): Active
- Activity (PBMC [15]): Active

SMILES: Cc1cccc(F)c1C(=O)Nc1cnc(-c2cc3c(cc2Cl)OC(F)(F)O3)cn1
- inhibition (PBMC [16]): Active
- inhibition (PBMC [17]): Active
